{
  "source": "patent US6495567B1",
  "about": "“Triaryl methane compounds and their use in the treatment of diarrhea and scours” (Beth Israel Deaconess Medical Center, priority 1996, dated 2002)",
  "key": {"T84 cells": {"tested_on": "T84 cells", "test": "Electrogenic Cl- secretion (short circuit current, Isc) in confluent T84 monolayers", "type": "cell-based, human"}, "basolateral K+ channels": {"tested_on": "basolateral K+ channels", "test": "Basolateral K+ conductance in T84 monolayers permeabilized apically with amphotericin B", "type": "cell-based, human", "method": "Selective mebrane Permeabilization and Measurement of Potassium Conductance of the Basolateral Membrane. The basolateral potassium conductance was measured using the technique developed by Dawson and co-workers. A potassium gradient (mucosal to serosal) was first established across the monolayer using asymmetric mucosal and serosal buffers containing K^+ as the sole permeant ion. The addition of amphotericin B (20 μM) to the mucosal reservoir forms conductive pores in the apical membrane, and thus removes all resistance to transepithelial potassium movement across this membrane. Thus, under the conditions of the experiment, in which the monolayer is short circuited (i.e., voltage-clamped at zero potential) and the transepithehal potassium gradient is constant, the amphotericin-dependent Isc becomes a measure of the rate of the transepithelial potassium flux across basolateral membranes. Changes in short circuit current (Isc), then represent changes in basolateral K^+ conductances (gK). Isc and K^+ conductances were measured using calomel electrodes, 3M KCI-agar bridges, and a voltage clamp (University of Iowa, Iowa City). To generate a voltage-current channel relationships, currents were elicited by 1 sec test potentials from −80 to +80 in 10 mV increments in the asymmetrical high K^+ gluconate solution.\nCalculation of Basolateral Membrane K^+ Permeability: Membrane Permeabilities were Calculated According to the Formula:\n^PK=(cm/s)=^JK(mM/cm^2·s)/Δ[K^+](mM/cm^3)\nwhere Δ[K^+] is equal to the difference in K^+ concentration (135 mM) between the asymmetric apical and basolateral bathing solutions. Maximal Isc values were converted into K^+ fluxes by dividing by the Faraday constant F (96,500 coulombs/mol) as previously described (Huflejt et al., J. Clin. Invest. 93: 1900-1910 (1994)).\nBasolateral K+ transport was examined in T84 monolayers permeabilized apically by pretreatment with amphotericin B. Apical and basolateral buffers contained K+ as the sole permeant ion. All studies were performed with a 135 mM basolaterally directed K+ gradient. This method has been utilized previously to examine both Cl— and K+ transport in T84 cells and HT29-Cl.16E cells. Briefly, ion conductances in the luminal or basolateral membranes of confluent T84 cell monolayers can be assessed separately by selectively permeabilizing the apical or basolateral membrane using the ionophore amphotericin B. This artificially removes all electrical resistance to ion transport across the plasma membrane containing pores formed by amphotericin B. As a result, the intact contralateral plasma membrane becomes rate limiting for transepithelial ion transport. Agonist-dependent changes in ion conductances can be assessed directly either as transepithelial short circuit current (Isc) in the presence of established ion gradients, or as transepithelial conductance (G) in the presence of established transepithelial potentials."}, "[1]": {"tested_on": "apical membrane Cl- channels", "test": "Apical Cl- conductance in T84 monolayers permeabilized basolaterally with amphotericin B", "type": "cell-based, human", "settings": "symmetrical Cl- 142 mM; forskolin 10 μM"}, "[2]": {"tested_on": "basolateral NaK2Cl cotransporters"}, "basolateral K+ channel": {"tested_on": "basolateral K+ channel", "test": "86Rb efflux from T84 monolayers (K+ channel activity)", "type": "cell-based, human", "method": "(§1) After four baseline samples were obtained, the cells were treated (at t=8 minutes) with vasoactive intestinal peptide (VIP, […]) or thapsigargin (5 μM) to stimulate Cl^− secretion, and an additional 15 timed samples were obtained. Finally, the cell monolayer was rinsed, cut with its support from the polystyrene ring, and the residual cell-associated radioactivity was determined. Monolayers were maintained at 37° C. in room air throughout the study. ^86Rb was counted by scintillation counting and normalized to percent total uptake as previously described (Venglarik, et al, Am. J. Physiol. (Cell Physiol. 28):C358-C364 (1990)."}, "[3]": {"tested_on": "basolateral NaK2Cl cotransporters", "test": "Bumetanide-sensitive 86Rb uptake in T84 monolayers", "settings": "33 μM for 30 min"}, "[4]": {"tested_on": "intestinal fluid secretion induced by cholera toxin", "type": "in vivo, Balb/C mice"}, "rabbit colonic mucosa": {"tested_on": "rabbit colonic mucosa", "test": "Ussing chamber studies using rabbit colonic mucosa", "settings": "clotrimazole 30 μM; forskolin 10 μM", "method": "4 male, New Zealand rabbits (2.5 kg) were anesthetized by an intravenous injection of pentobarbital (0.5 ml/kg). A 15 cm length of distal colon was removed and opened longitudinally. […] The volume of fluid on each side of the mucosa was 7 ml.\nPotential difference and Isc were monitored continuously and registered every 10 minutes."}, "[5]": {"tested_on": "apical membrane Cl- channels", "test": "125I efflux from T84 monolayers", "type": "cell-based, human", "method": "as §1, with “Cl—” for “Cl^−”, “^125I” for “^86Rb”, “gamma” for “scintillation”"}, "[6]": {"settings": "forskolin 10 μM, carbachol 100 μM"}, "[7]": {"settings": "33 μM, final 30 minutes of preincubation"}},
  "note": "Read-outs that look alike come from different tables or passages of the source.",
  "data": [
    {"compound": "OC(c1ccccc1)(c1ccccc1)c1ccccc1Cl", "note": "[2-chlorophenyl-bis-phenyl methanol]", "values": [
      {"measurement": "Inhibition of cAMP and Ca++ elicited chloride secretion", "setting": "T84 cells; T84 cells", "value": "effective at inhibiting chloride secretion"},
      {"measurement": "Inhibition of time course of K+ transport after forskolin and carbachol", "setting": "basolateral K+ channels; [6]", "value": "Nearly identical results"}
    ]},
    {"compound": "[Ba+2].[Cl-].[Cl-]", "note": "[BaCl2]", "values": [
      {"measurement": "Inhibition of Cl- secretory response (Isc) to Ca++-dependent agonist carbachol", "setting": "T84 cells", "value": "no apparent affect"},
      {"measurement": "Inhibition of Cl- secretory response (Isc) to cAMP mediated agonist VIP", "setting": "T84 cells", "value": "strongly inhibited"},
      {"measurement": "Effect on K+ transport induced by subsequent addition of carbachol", "setting": "basolateral K+ channels; carbachol 100 μM, same monolayers, BaCl2 3 mM", "value": "no detectable effect"},
      {"measurement": "Inhibition of cAMP-sensitive IK elicited by forskolin", "setting": "basolateral K+ channels; forskolin 10 μM, BaCl2 3 mM basolateral", "value": "greater than 70%"}
    ]},
    {"compound": "C[C@@H]1[C@H](O)[C@@H](C)/C=C/C=C/C=C/C=C/C=C/C=C/C=C/[C@H](O[C@@H]2O[C@H](C)[C@@H](O)[C@H](N)[C@@H]2O)C[C@@H]2O[C@](O)(C[C@@H](O)C[C@@H](O)[C@H](O)CC[C@@H](O)C[C@@H](O)CC(=O)O[C@H]1C)C[C@H](O)[C@H]2C(=O)O", "note": "[amphotericin B]", "values": [
      {"measurement": "Increase in conductance on initial permeabilization", "setting": "basolateral K+ channels; amphotericin B apical", "value": "49±19", "unit": "%"}
    ]},
    {"compound": "C[N+](C)(C)CCOC(N)=O", "note": "[carbachol]", "values": [
      {"measurement": "Carbachol-induced IscK, carbachol added alone", "setting": "basolateral K+ channels; apically permeabilized monolayers", "value": "111.7±7.4", "unit": "μA/cm^2"},
      {"measurement": "Carbachol-induced IscK, carbachol added after forskolin", "setting": "basolateral K+ channels; apically permeabilized monolayers, forskolin 10 μM", "value": "180.7±15.7", "unit": "μA/cm^2"}
    ]},
    {"compound": "Clc1ccccc1C(c1ccccc1)(c1ccccc1)n1ccnc1", "note": "[clotrimazole]", "values": [
      {"measurement": "IC50", "setting": "T84 cells; Homo sapiens, T84, read-out: IC50 for inhibition of secretory response to E. Coli heat-stabile toxin", "value": 15, "unit": "µM"},
      {"measurement": "Inhibition of cAMP and Ca++ elicited chloride secretion", "setting": "T84 cells; T84 cells", "value": "most potent inhibitor tested"},
      {"measurement": "Inhibition of Cl- secretory response (Isc) to cAMP mediated agonist VIP", "setting": "T84 cells; T84 cells, VIP 5 nM, BaCl 3 mM, charybdotoxin 100 nM", "value": "inhibited"},
      {"measurement": "Inhibition of Cl- secretory response (Isc) to Ca++-dependent agonist carbachol", "setting": "T84 cells; T84 cells, carbachol 100 mM, BaCl 3 mM, charybdotoxin 100 nM", "value": "inhibited"},
      {"measurement": "Apparent potency of inhibition at a fixed time point, basolateral versus apical application", "setting": "T84 cells; T84 monolayers", "value": "greater when applied basolaterally than apically"},
      {"measurement": "Inhibition with basolateral application alone compared with both sides of the monolayer", "setting": "T84 cells; T84 monolayers", "value": "almost as effective as incubation on both sides"},
      {"measurement": "Reversibility of inhibition of Cl- secretion", "setting": "T84 cells; after 60 min recovery in the presence of 0.01 mg/ml bovine serum albumin, n=4", "value": "96±2", "unit": "%"},
      {"measurement": "Potentiation of Cl- secretory responses to either agonist at low doses", "setting": "T84 cells; low doses (=10^-7 or less)", "value": "5-10%"},
      {"measurement": "Inhibition of secretory response to agonists of the cAMP signalling cascade", "setting": "T84 cells; preincubation 33 μM, 5 μM VIP, 10 μM forskolin or 3 mM 8Br-cAMP", "value": "inhibited"},
      {"measurement": "Inhibition of Cl- secretory response to Ca++-dependent agonists", "setting": "T84 cells; pretreatment 33 μM, carbachol 100 μM, thapsigargin 5 μM or ionomycin 10 μm", "value": "inhibited strongly"},
      {"measurement": "Inhibition of the synergistic secretory response to VIP plus carbachol", "setting": "T84 cells; same monolayers", "value": "parallel the inhibition of secretion promoted by Ca^++ agonists alone"},
      {"measurement": "Effect on forskolin- or thapsigargin-stimulated Cl- conductances", "setting": "[1]", "value": "no detectable effect"},
      {"measurement": "Bumetanide-sensitive fractional component of 86Rb uptake", "setting": "[2]", "value": "88±3.2", "unit": "% total uptake"},
      {"measurement": "Reduction of rate constant for VIP-stimulated 86Rb efflux", "setting": "basolateral K+ channel; 33 µM", "value": 87, "unit": "%"},
      {"measurement": "Rate constant for VIP-stimulated 86Rb efflux", "setting": "basolateral K+ channel; 33 μM clotrimazole, untreated 0.0465", "value": 0.0062, "unit": "% uptake/minute"},
      {"measurement": "Rate constant for thapsigargin-stimulated 86Rb efflux", "setting": "basolateral K+ channel; 33 μM clotrimazole, untreated 0.048, n=2", "value": 0.011, "unit": "% uptake/minute"},
      {"measurement": "Effect of pretreatment on 86Rb loading of the cells", "setting": "basolateral K+ channel; [7]", "value": "did not alter"},
      {"measurement": "Inhibition of baseline and Ca++ stimulated 86RB efflux", "setting": "basolateral K+ channel; T84 cells with VIP or thapsigargin", "value": "significantly inhibited"},
      {"measurement": "Reduction of total amount of 86Rb uptake", "setting": "[3]; VIP, mean±SEM, n=6", "value": "53.6±15.8", "unit": "%"},
      {"measurement": "Effect on bumetanide-sensitive fractional component of 86Rb uptake", "setting": "[3]; bumetanide 10 μM", "value": "no effect"},
      {"measurement": "Reduction of intestinal fluid secretion induced by cholera toxin", "setting": "[4]; 5 hours", "value": 86, "unit": "%"},
      {"measurement": "Effect on intestinal secretion in the absence of cholera toxin", "setting": "[4]; mouse, in vivo", "value": "no effect"},
      {"measurement": "Inhibition of time course of forskolin induced Isc", "setting": "rabbit colonic mucosa", "value": "inhibited strongly"},
      {"measurement": "Effect on time course of 125I efflux from monolayers treated with VIP", "setting": "[5]; 33 μM clotrimazole", "value": "little or no effect"},
      {"measurement": "Effect of pretreatment on 125I loading of the cells", "setting": "[5]; [7]", "value": "did not alter"},
      {"measurement": "Rate constant for 125I efflux", "setting": "[5]; VIP, 33 μM clotrimazole, not treated 0.0645, n=2 in duplicate", "value": 0.0637, "unit": "% uptake/minute"},
      {"measurement": "Inhibition of time course of K+ transport after forskolin and carbachol", "setting": "basolateral K+ channels; [6]", "value": "significantly inhibited"}
    ]},
    {"compound": "Clc1ccc(COC(Cn2ccnc2)c2ccc(Cl)cc2Cl)cc1", "note": "(stereo not shown) [econazole]", "values": [
      {"measurement": "Inhibition of cAMP and Ca++ elicited chloride secretion", "setting": "T84 cells; T84 cells", "value": "effective at inhibiting chloride secretion"}
    ]},
    {"compound": "CC(=O)N1CCN(c2ccc(OCC3COC(Cn4ccnc4)(c4ccc(Cl)cc4Cl)O3)cc2)CC1", "note": "(stereo not shown) [ketoconazole]", "values": [
      {"measurement": "Inhibition of cAMP and Ca++ elicited chloride secretion", "setting": "T84 cells; T84 cells", "value": "effective at inhibiting chloride secretion"}
    ]},
    {"compound": "Clc1ccc(COC(Cn2ccnc2)c2ccc(Cl)cc2Cl)c(Cl)c1", "note": "(stereo not shown) [miconazole]", "values": [
      {"measurement": "Inhibition of cAMP and Ca++ elicited chloride secretion", "setting": "T84 cells; T84 cells", "value": "effective at inhibiting chloride secretion"}
    ]},
    {"compound": "charybdotoxin", "values": [
      {"measurement": "Inhibition of Cl- secretory response (Isc) to Ca++-dependent agonist carbachol", "setting": "T84 cells", "value": "strongly inhibited"},
      {"measurement": "Inhibition of Cl- secretory response (Isc) to cAMP mediated agonist VIP", "setting": "T84 cells", "value": "minimal affects"},
      {"measurement": "Effect on K+ transport induced by subsequent addition of forskolin", "setting": "basolateral K+ channels; charybdotoxin 100 nM", "value": "no detectable effect"},
      {"measurement": "Inhibition of carbachol induced Ca++ IK", "setting": "basolateral K+ channels; pretreatment with charybdotoxin 100 nM", "value": 50, "unit": "%"}
    ]}
  ]
}
